Data published in patent US10988455B2, “1,2,4-triazine-4-amine derivatives” (Heptares Therapeutics Limited, priority 2010, dated 2021).

How the values were obtained:
[1] = target: human adenosine A2a receptor (Homo sapiens (Human), UniProt P29274); assay: HEK293-hA2a [3H]-ZM241385 binding assay (Test A); details: HEK293 membranes, 1 nM [3H]ZM241385, 25° C., 1 h
Experimental: (§1) All test compounds were prepared as a stock solution of 10 mM in 100% DMSO.

[2] = target: human adenosine A1 receptor (Homo sapiens (Human), UniProt P30542); assay: CHO-hA1 [3H]DPCPX binding assay (Test A); details: CHO membranes, 1 nM [3H]DPCPX, 25° C., 1 h; for Ki: read-out: pKi A1 (converted)
Experimental: as §1

[3] = system: haloperidol-induced catalepsy in rats; assay: Catalepsy reversal test (Test B); type: in vivo, Sprague-Dawley rats; details: for reversal of cataleptic behavior in rats pre-treated with haloperidol: dose of 1 mg/kg p.o.
Experimental: The dopamine D2 receptor antagonist, haloperidol, induces Parkinsonism in humans and induces motor effects in rats such as catalepsy. There is considerable evidence that adenosine A2A receptor antagonists reverse haloperidol-induced motor effects in preclinical studies. […] The present study determines the ability of haloperidol-induced catalepsy in rats to be reversed by novel A2A receptor antagonists.
Haloperidol (0.82 mg/kg, i.p.; 150 min pre-test time) induces significant cataleptic behaviour in rats (average score 3.1). The effect of selected compounds of the invention (2-10 mg/kg or 0.3-3 mg/kg, p.o.; 120 min pre-test time) on catalepsy was established by administration of said compounds to rats pre-treated with haloperidol as described above.
Details of a similar test may be found in, for example, Hodgson et al., J. Pharmacol. Exp. Ther. 330, 2009.

Chain of human adenosine A1 receptor (P30542 whole entry): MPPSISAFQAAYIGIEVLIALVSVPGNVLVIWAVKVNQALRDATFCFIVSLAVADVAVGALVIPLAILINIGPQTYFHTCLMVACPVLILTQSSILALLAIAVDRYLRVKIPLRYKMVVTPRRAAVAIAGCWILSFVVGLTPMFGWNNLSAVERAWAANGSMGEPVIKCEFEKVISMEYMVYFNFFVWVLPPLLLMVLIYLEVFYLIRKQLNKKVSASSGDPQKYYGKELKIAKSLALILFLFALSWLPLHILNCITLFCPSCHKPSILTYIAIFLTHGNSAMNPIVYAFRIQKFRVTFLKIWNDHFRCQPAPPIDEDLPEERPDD
Chain of human adenosine A2a receptor (P29274 whole entry): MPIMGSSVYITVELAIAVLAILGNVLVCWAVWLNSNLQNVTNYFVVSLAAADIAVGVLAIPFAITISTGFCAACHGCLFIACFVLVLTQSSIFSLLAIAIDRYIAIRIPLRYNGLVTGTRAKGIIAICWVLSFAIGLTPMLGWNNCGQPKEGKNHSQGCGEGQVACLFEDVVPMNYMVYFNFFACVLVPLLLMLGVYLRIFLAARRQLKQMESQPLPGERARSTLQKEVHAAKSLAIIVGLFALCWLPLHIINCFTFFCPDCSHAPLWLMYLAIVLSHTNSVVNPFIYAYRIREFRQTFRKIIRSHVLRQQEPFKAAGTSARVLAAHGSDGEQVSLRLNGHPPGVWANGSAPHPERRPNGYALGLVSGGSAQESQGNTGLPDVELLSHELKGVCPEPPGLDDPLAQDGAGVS

Compound | pKi A2a [1] | pKi A1 [2] | also measured
Nc1nnc(-c2cc(Cl)cc(Cl)c2)c(-c2ccccn2)n1 [1(cciv)] | 7.21 | 5.97 | –
CN(C)c1cc(-c2nnc(N)nc2-c2ccccc2)ccn1 [1(ccxi)] | 7.71 | 8.74 | –
Cc1cc(-c2nnc(N)nc2-c2ccccc2)cc(Br)n1 [1(ccxii)] | 8.66 | 7.68 | reversal of cataleptic behavior in rats pre-treated with haloperidol ([3]; 120 min pre-test time): statistically significant
Cc1cc(-c2nnc(N)nc2-c2ccccc2)cc(C)[n+]1[O-] [1(ccxiii)] | 7.51 | 7.12 | –
Nc1nnc(-c2cc(Cl)cc(C(F)(F)F)c2)c(-c2ncccn2)n1 [1(ccxviii)] | 6.58 | 5.25 | –
Cc1cc(-c2nnc(N)nc2-c2cc(F)cc(F)c2)cc(C)n1 [1(cliv)] | – | 6.77 | reversal of cataleptic behavior in rats pre-treated with haloperidol ([3]; 120 min pre-test time): statistically significant
Cc1cc(-c2nnc(N)nc2-c2ccc(Cl)cc2)cc(C)n1 [1(clix)] | 7.81 | 7.07 | reversal of cataleptic behavior in rats pre-treated with haloperidol ([3]; 120 min pre-test time): statistically significant
Nc1nnc(-c2cc(Cl)nc(C(F)(F)F)c2)c(-c2ccc(F)cc2)n1 [1(clxix)] | 8.40 | 6.99 | reversal of cataleptic behavior in rats pre-treated with haloperidol ([3]; 120 min pre-test time): statistically significant
Cc1cc(-c2nnc(N)nc2-c2ccccc2)cc(C(F)F)n1 [1(clxxix)] | 8.62 | 7.52 | reversal of cataleptic behavior in rats pre-treated with haloperidol ([3]; 120 min pre-test time): statistically significant
Cc1cc(-c2nnc(N)nc2-c2ccccc2F)cc(Cl)n1 [1(clxxvi)] | 8.03 | 6.93 | –
Nc1nnc(-c2cc(Cl)nc(C(F)F)c2)c(-c2ccccc2)n1 [1(clxxx)] | 8.90 | 7.76 | –
Nc1nnc(-c2cc(Cl)nc(CF)c2)c(-c2ccccc2)n1 [1(clxxxi)] | 8.71 | 7.17 | –
Cc1cc(-c2nnc(N)nc2-c2ccccc2F)cc(C(F)(F)F)n1 [1(cxci)] | 8.26 | 7.36 | reversal of cataleptic behavior in rats pre-treated with haloperidol ([3]; 120 min pre-test time): statistically significant
Cc1cc(-c2nnc(N)nc2-c2ccc(F)cc2)cc(C(F)(F)F)n1 [1(cxciii)] | – | 6.93 | reversal of cataleptic behavior in rats pre-treated with haloperidol ([3]; 120 min pre-test time): statistically significant
Nc1nnc(-c2cnn(Cc3ccccc3)c2)c(-c2ccccc2)n1 [1(cxxxiv)] | 5.62 | 7.62 | –
Nc1nnc(-c2cccc(C(F)(F)F)c2)c(-c2ccccc2)n1 [1(ix), 5-Phenyl-6-[3-(trifluoromethyl)phenyl]-1,2,4-triazin-3-amine] | – | 7.81 | –
Cc1cc(Cl)cc(-c2nnc(N)nc2-c2ccccc2)c1 [1(li)] | 8.66 | 6.87 | reversal of cataleptic behavior in rats pre-treated with haloperidol ([3]; 120 min pre-test time): statistically significant
Cc1cc(-c2nnc(N)nc2-c2ccccc2)cc(Cl)n1 [1(lvi)] | 8.22 | 7.33 | reversal of cataleptic behavior in rats pre-treated with haloperidol ([3]; 120 min pre-test time): statistically significant
Nc1nnc(-c2ccc3ccccc3c2)c(-c2ccccc2)n1 [1(lxxii)] | 6.99 | 8.52 | –
Nc1nnc(-c2ccnc(C3CC3)c2)c(-c2ccccc2)n1 [1(lxxix)] | 7.45 | 9.35 | –
CC1(C)C=C(c2nnc(N)nc2-c2ccccc2)CC(C)(C)O1 [1(lxxx)] | 6.61 | 6.01 | –
Cc1cc(-c2nnc(N)nc2-c2cccc(F)c2)cc(Cl)n1 [1(xc)] | 8.07 | 7.26 | reversal of cataleptic behavior in rats pre-treated with haloperidol ([3]; 120 min pre-test time): statistically significant
Nc1nnc(-c2cc(Cl)cc(Cl)c2)c(-c2ccccc2)n1 [1(xiii), 6-(3,5-Dichlorophenyl)-5-phenyl-1,2,4-triazin-3-amine] | – | – | reversal of cataleptic behavior in rats pre-treated with haloperidol ([3]; 120 min pre-test time): statistically significant
Cc1cc(-c2nnc(N)nc2-c2ccccc2)cc(C)c1O [1(xli)] | – | 7.83 | –
Nc1nnc(-c2ccnc(Cl)c2)c(-c2ccccc2)n1 [1(xliii)] | 7.74 | 8.54 | ED50, reversal of cataleptic behaviour in rats pre-treated with haloperidol ([3]; p.o., 120 min pre-test time, haloperidol 0.82 mg/kg i.p.): 0.27 mg/kg

Compound | pKi A2a [1] | pKi A1 [2] | also measured
Nc1nnc(-c2ccc(F)c(Cl)c2)c(-c2ccccc2)n1 [1(xv), 6-(3-Chloro-4-fluorophenyl)-5-phenyl-1,2,4-triazin-3-amine] | 7.11 | 8.45 | –
Nc1nnc(-c2ccc3cc[nH]c3c2)c(-c2ccccc2)n1 [1(xviii), 6-(1H-Indol-6-yl)-5-phenyl-1,2,4-triazin-3-amine] | 6.75 | 6.91 | –
COc1cc(OC)cc(-c2nnc(N)nc2-c2ccccc2)c1 [1(xxiv), 6-(3,5-Dimethoxyphenyl)-5-phenyl-1,2,4-triazin-3-amine] | 6.97 | 8.03 | –
Nc1nnc(-c2ccc3occc3c2)c(-c2ccccc2)n1 [1(xxxv), 6-(1-benzofuran-5-yl)-5-phenyl-1,2,4-triazin-3-amine] | 7.19 | 8.20 | –
CC1CCCN(c2nnc(N)nc2-c2ccccc2)C1 (stereo not drawn) [2(iii), 6-(3-Methylpiperidin-1-yl)-5-phenyl-1,2,4-triazin-3-amine] | 7.31 | 5.37 | –
CC1CN(c2nnc(N)nc2-c2ccccc2)CC(C)O1 (stereo not drawn) [2(iv), 6-(2,6-Dimethylmorpholin-4-yl)-5-phenyl-1,2,4-triazin-3-amine] | 7.79 | – | Ki [2]: > 10000 nM
CC1(C)CCCN(c2nnc(N)nc2-c2ccccc2)C1 [2(vi), 6-(3,3-Dimethylpiperidin-1-yl)-5-phenyl-1,2,4-triazin-3-amine] | 7.39 | – | Ki [2]: > 10000 nM
Cc1csc(Nc2nnc(N)nc2-c2ccccc2)n1 [2(xxii)] | 5.07 | 6.71 | –
Nc1nnc(N2CCOC(CO)C2)c(-c2ccccc2)n1 (stereo not drawn) [2(xxv)] | 5.53 | 7.49 | –
Nc1nnc(Oc2ccccc2)c(-c2ccccc2)n1 [3(i), 6-Phenoxy-5-phenyl-1,2,4-triazin-3-amine] | 7.17 | – | Ki [2]: > 10000 nM
Nc1nnc(Oc2cccc(C(F)(F)F)c2)c(-c2ccccc2)n1 [3(v), 5-Phenyl-6-[3-(trifluoromethyl)phenoxy]-1,2,4-triazin-3-amine] | 5.96 | – | –
Nc1nnc(-n2ccc(=O)cc2)c(-c2ccccc2)n1 [3(xvi)] | 7.41 | 7.15 | –
Cc1ncccc1Oc1nnc(N)nc1-c1ccccc1 [3(xxi)] | 6.22 | 8.07 | –
Cn1nc(C(F)(F)F)cc1Oc1nnc(N)nc1-c1ccccc1 [3(xxiv)] | 7.39 | 8.46 | –
Cc1ccc(Sc2nnc(N)nc2-c2ccccc2)cc1 [3(xxxii)] | 5.82 | 7.00 | –
Nc1nnc(-c2cc(Cl)cc(C3CC3)c2)c(-c2ccccc2)n1 [4(ii), 6-(3-Chloro-5-cyclopropylphenyl)-5-phenyl-1,2,4-triazin-3-amine] | – | – | Ki ([1]; read-out: pKi A2a (converted)): 12.9 nM; Ki [2]: 37.2 nM
Cc1cn(-c2nnc(N)nc2-c2ccccc2)cc(C)c1=O [5(ix), 1-(3-Amino-5-phenyl-1,2,4-triazin-6-yl)-3,5-dimethylpyridin-4(1H)-one] | 7.77 | 7.62 | –
CC(=O)Nc1cc(-c2nnc(N)nc2-c2ccccc2)ccc1O [5(vii), N-[5-(3-Amino-5-phenyl-1,2,4-triazin-6-yl)-2-hydroxyphenyl]acetamide] | 6.73 | 8.69 | –
[2H]C([2H])([2H])c1cc(-c2nnc(N)nc2-c2ccccc2)cc(C)n1 [5(viii), 6-(2-Methyl-6-d3-methylpyridin-4-yl)-5-phenyl-1,2,4-triazin-3-amine] | – | 7.26 | –
Cc1cc(-c2nnc(N)nc2-c2ccc(F)cc2)cc(N2CCC2)n1 [5(xi), 6-[2-(azetidin-1-yl)-6-methylpyridin-4-yl]-5-(4-fluorophenyl)-1,2,4-triazin-3-amine] | 7.76 | 6.90 | –
Cc1cc(-c2nnc(N)nc2-c2ccccc2)cc(C(F)(F)F)n1 [Example 1(ccix), 6-[2-methyl-6-(trifluoromethyl)pyridin-4-yl]-5-phenyl-1,2,4-triazin-3-amine] | – | 7.60 | reversal of cataleptic behavior in rats pre-treated with haloperidol ([3]; 120 min pre-test time): statistically significant
Nc1nnc(-c2cccc(Cl)c2)c(-c2ccccc2)n1 [Example 1(vi), 6-(3-Chlorophenyl)-5-phenyl-1,2,4-triazin-3-amine] | – | – | ED50 ([3]; Rattus norvegicus, p.o., 120 min pre-test time, haloperidol 0.82 mg/kg i.p., read-out: ED50, reversal of cataleptic behaviour in rats pre-treated with haloperidol): 9.8 mg/kg
Cc1cc(-c2nnc(N)nc2-c2ccc(F)cc2)cc(Cl)n1 [Example 1(xcv), 6-(2-chloro-6-methylpyridin-4-yl)-5-(4-fluorophenyl)-1,2,4-triazin-3-amine] | – | – | reversal of cataleptic behavior in rats pre-treated with haloperidol ([3]; 120 min pre-test time): statistically significant
O=C(CCCN1CCC(O)(c2ccc(Cl)cc2)CC1)c1ccc(F)cc1 [Haloperidol, haloperidol, reference compound] | – | – | catalepsy average score (maximum score of 4) ([3]; haloperidol 0.82 mg/kg i.p., 150 min pre-test time): 3.1
